Where two headings read alike, the source gives them in different places. Marks after values point to notes of the source that are not given here.
Row | SMILES | Log P (pH 2.7) | Log P (pH 7.5) | Log P (pH 2.3)
1 | CCOC(=O)C(C#N)=C(NCC1(C)COC1)c1cccnc1Cl [Compound 1429] | 2.11^[a] |  | 
2 | CC#CC1(NC(=C(C#N)C(=O)OCC)c2cccnc2Cl)CCCCC1 [Compound 1430] | 4.06^[a] |  | 
3 | CCOCC(NC(=C(C#N)C(=O)OCC)c1cccnc1Cl)C(C)C (stereo not shown) [Compound 1431] | 3.69^[a] |  | 
4 | CCOC(=O)C(C#N)=C(NC1CCCC1OC)c1cccnc1Cl (stereo not shown) [Compound 1432] | 2.96^[a] |  | 
5 | CCCC(CC)NC(=C(C#N)C(=O)OCC)c1cccnc1Cl (stereo not shown) [Compound 1434] | 3.8^[a] |  | 
6 | CCOC(=O)C(C#N)=C(NC1CCc2cccnc21)c1cccnc1Cl (stereo not shown) [Compound 1436] | 2.4^[a] |  | 
7 | CCOC(=O)C(C#N)=C(NC(C)c1ccc(Cl)nc1)c1cccnc1Cl (stereo not shown) [Compound 1437] | 2.8^[a] |  | 
8 | CCOC(=O)C(C#N)=C(NC(C)c1cccc(OC)n1)c1cccnc1Cl (stereo not shown) [Compound 1438] | 3.5^[a] |  | 
9 | CCOC(=O)C(C#N)=C(NC(C)c1cccc(Cl)n1)c1cccnc1Cl (stereo not shown) [Compound 1439] | 3.2^[a] |  | 
10 | CCOC(=O)C(C#N)=C(NC(C)c1cccc(C)n1)c1cccnc1Cl (stereo not shown) [Compound 1440] | 2.56^[a] |  | 
11 | CCOC(=O)C(C#N)=C(NC(C)c1ccc2ccccc2n1)c1cccnc1Cl (stereo not shown) [Compound 1441] | 3.37^[a] |  | 
12 | CCOC(=O)C(C#N)=C(NC(C)c1cc(C)ccn1)c1cccnc1Cl (stereo not shown) [Compound 1442] | 2.6^[a] |  | 
13 | CCOC(=O)C(C#N)=C(NC(C)C=NO)c1cccnc1Cl (stereo not shown) [Compound 1443] |  | 1.78 | 
14 | CCOC(=O)C(C#N)=C(NC(C)c1cnc(Cl)s1)c1cccnc1Cl (stereo not shown) [Compound 1444] | 3.1^[a] |  | 
15 | CCOC(=O)C(C#N)=C(NC(C)c1ccc(Cl)cn1)c1cccnc1Cl (stereo not shown) [Compound 1445] | 3.3^[a] |  | 
16 | CCOC(=O)C(C#N)=C(NC(C)c1cc(Cl)cc(C)n1)c1cccnc1Cl (stereo not shown) [Compound 1446] | 3.4^[a] |  | 

Row | SMILES | Log P (pH 2.7) | Log P (pH 7.5) | Log P (pH 2.3)
17 | CCOC(=O)C(C#N)=C(NC(C)c1csc(-c2ccccc2)n1)c1cccnc1Cl (stereo not shown) [Compound 1447] | 4^[a] |  | 
18 | CCOC(=O)C(C#N)=C(NC(C)c1ncccc1SC)c1cccnc1Cl (stereo not shown) [Compound 1448] | 3.1^[a] |  | 
19 | CCOC(=O)C(C#N)=C(NC(C)c1cc(Cl)ccn1)c1cccnc1Cl (stereo not shown) [Compound 1449] | 3^[a] |  | 
20 | C=CCOC(=O)C(C#N)=C(NC(C)c1nccs1)c1ccc(Cl)nc1Cl (stereo not shown) [Compound 1450] |  | 3.16 | 
21 | CC(C)C(C)NC(=C(C#N)C(=O)NC1CC1)c1cccnc1Cl (stereo not shown) [Compound 1451] |  | 2.76 | 2.74
22 | CC(C)C(C)NC(=C(C#N)C(=O)NC1CSC1)c1cccnc1Cl (stereo not shown) [Compound 1452] |  | 3.22^[c]; 3.22^[b] | 3.22^[c]; 3.22^[b]
23 | CC(C)C(C)NC(=C(C#N)C(=O)NC1CCC1)c1cccnc1Cl (stereo not shown) [Compound 1453] |  | 3.44^[c]; 3.44^[b] | 3.44^[c]; 3.44^[b]
24 | CCONC(=O)C(C#N)=C(NC(C)C(C)C)c1cccnc1Cl (stereo not shown) [Compound 1454] |  | 2.44^[c]; 2.44^[b] | 2.44^[c]; 2.44^[b]
25 | CC(C)C(C)NC(=C(C#N)C(=O)NC1COC1)c1cccnc1Cl (stereo not shown) [Compound 1455] |  | 2.26 | 2.24
26 | CC(C)C(C)NC(=C(C#N)C(=O)NC1CC1F)c1cccnc1Cl (stereo not shown) [Compound 1456] |  | 2.83^[c]; 2.83^[b] | 2.83^[c]; 2.83^[b]
27 | CCOC(=O)C(C#N)=C(NC(C)C(C)C)c1cccnc1-c1ccc(C(F)(F)F)cc1 (stereo not shown) [Compound 1457] |  | 4.25 | 4.23
28 | C=CCNC(=O)C(C#N)=C(NC(C)C(C)C)c1cccnc1Cl (stereo not shown) [Compound 1458] |  | 3^[c]; 3^[b] | 3^[c]; 3^[b]
29 | CONC(=O)C(C#N)=C(NC(C)c1nccs1)c1ccc(Cl)nc1Cl (stereo not shown) [Compound 1459] |  | 1.94 | 
30 | CNC(=O)C(C#N)=C(NC(C)c1nccs1)c1ccc(Cl)nc1Cl (stereo not shown) [Compound 1460] |  | 2.29 | 
31 | C=CCONC(=O)C(C#N)=C(NC(C)C(C)C)c1cccnc1Cl (stereo not shown) [Compound 1461] |  | 2.62 | 2.66

From US8476197B2, “Aminopropenoates as fungicides” (priority 2009, dated 2013)
